In US20160166648A1, “Treatment of Multiple Sclerosis With Combination of Laquinimod and Interferon-Beta” (Teva Pharmaceutical Industries, Ltd., priority 2011, published 2016):
Several values for one entry are separate records, joined by “and”; a condition that tells them apart may be missing. Identical values can stand only once. Like-named read-outs stand apart in the source and are kept apart here.

What was measured:
[1] = in vivo; cited from earlier work
Multiple Sclerosis = conditions: two phase III trials; cited from earlier work
[2] = system: MOG induced EAE in C57 BI mice; assay: Interferon-β s.c. daily alone or in combination with laquinimod in chronic MOG induced EAE; format: in vivo, C57BL/6 mice; conditions: for Activity compared to Laquinimod: Table 6
[3] = Laquinimod 10 mg/kg oral QD, compared to vehicle
[4] = Laquinimod 25 mg/kg oral QD, compared to laquinimod (10 mg/kg)
[5] = Laquinimod 25 mg/kg oral QD, compared to vehicle

## CCN(C(=O)c1c(O)c2c(Cl)cccc2n(C)c1=O)c1ccccc1 [Laquinimod]
[1]
  Oral bioavailability: high
Multiple Sclerosis
  Safety and tolerability profile: favorable
[2]
  Mean Onset: 21.4 ± 8.2 days
[2]; Laquinimod 10 mg/kg oral QD
  GMS value (group mean score): 0.8 ± 0.8 and 0.8
  Incidence: 8/13
  MMS value (mean maximal score): 1.8 ± 1.7
  Mean Duration: 9.2 ± 8.3 days
  Mean Onset: 21.3 ± 8.2 days
  Mortality: 0/13
[2]; [3]
  % inhibition 1 (incidence): 38.5%
  % inhibition 2 (MMS): 43.8%
  % inhibition 3 (GMS); Activity: 60%
[2]; Laquinimod 10 mg/kg oral QD, compared to vehicle, listed as laquinimod
  % inhibition 3 (GMS); Activity: 60%
[2]; Laquinimod 10 mg/kg oral QD, listed as Laquinmod
  GMS value (group mean score): 0.8 ± 0.8
[2]; Laquinimod 10 mg/kg
  Activity compared to Laquinimod: 60%
[2]; Laquinimod 25 mg/kg oral QD
  GMS value (group mean score): 0.3
  Incidence: 5/15
  MMS value (mean maximal score): 0.8 ± 1.3
  Mean Duration: 5.0 ± 7.4 days
  Mean Onset: 25.7 ± 7.8 days
  Mortality: 0/15
[2]; [4]
  % inhibition 1 (incidence): 37.5%
  % inhibition 2 (MMS): 55.5%
  % inhibition 3 (GMS): 62.5%
[2]; [5]
  % inhibition 1 (incidence): 61.5%
  % inhibition 2 (MMS): 75.0%
  % inhibition 3 (GMS); Activity: 85%
[2]; Laquinimod 25 mg/kg oral QD, compared to vehicle, listed as Laquiniomd
  % inhibition 3 (GMS); Activity: 85.0%
[2]; Laquinimod 25 mg/kg oral QD, listed as Laquiniomd
  GMS value (group mean score): 0.3 ± 0.5
[2]; Laquinimod 25 mg/kg oral QD, listed as Laquinmod
  GMS value (group mean score): 0.3 ± 0.5
[2]; Laquinimod 25 mg/kg
  Activity compared to Laquinimod: 85%
[2]; Laquinimod 25 mg/kg, according to GMS
  Activity compared to interferon-β (500,000 IU/mouse): 66.7%^
